Test results from PMC8875126, “Mechanistic Insights into Stereospecific Antifungal Activity of Chiral Fungicide Prothioconazole against Fusarium oxysporum F. sp. cubense” (International Journal of Molecular Sciences, 2022).

Target: T1, N1RIS1_FUSC4 (CYP51 of TR4; Eburicol 14-alpha-demethylase) (Fusarium odoratissimum, UniProt N1RIS1)
T1 construct: gene FOC4_g10015154
T1 sequence (N1RIS1 1-527): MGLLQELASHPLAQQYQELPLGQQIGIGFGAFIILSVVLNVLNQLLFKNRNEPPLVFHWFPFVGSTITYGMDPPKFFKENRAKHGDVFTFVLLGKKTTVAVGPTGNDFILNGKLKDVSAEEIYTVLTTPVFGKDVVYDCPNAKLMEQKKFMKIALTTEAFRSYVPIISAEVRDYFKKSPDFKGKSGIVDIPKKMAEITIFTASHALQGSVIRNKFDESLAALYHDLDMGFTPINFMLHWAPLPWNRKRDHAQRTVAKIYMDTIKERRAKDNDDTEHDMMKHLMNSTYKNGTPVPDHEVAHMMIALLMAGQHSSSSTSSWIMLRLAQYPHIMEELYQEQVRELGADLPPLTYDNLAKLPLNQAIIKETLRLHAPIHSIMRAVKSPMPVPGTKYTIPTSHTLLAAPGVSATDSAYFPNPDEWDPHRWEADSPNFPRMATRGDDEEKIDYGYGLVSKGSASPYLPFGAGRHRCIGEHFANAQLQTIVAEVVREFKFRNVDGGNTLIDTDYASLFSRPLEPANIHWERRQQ
Test: SPR (Biacore T200, protein amine-coupled on CM5 chip, […] kinetic fit)
Assay type: binding
Details: 25 °C; 3.125-50 μM analyte

## O[C@](Cc1ccccc1Cl)(Cn1[nH]cnc1=S)C1(Cl)CC1 [R-Pro]
  Kd: 342 pM
